The text below walks through data of article PMC12463105, “NSP7 Molecular Degrader Attenuates Coronaviral Infection Through the β‐TrCP1/FBXO5 Axis” (Advanced Science, 2025).

One test concerns SARS-CoV-2 NSP7-HiBiT. To be noted: read-out: NSP7- HiBiT; reduction of NSP7-HiBiT signal; degrader. For orientation: HiBiT is a short tag that completes a luciferase, so light tracks the accessible tagged protein.
The subject of another test is T1, HCoV-OC43.
T1 construct: ATCC VR-1558
Kind of test: microbe, parasite or virus in culture. The arrangement: HCoV-OC43 infection assay, reduction of viral infection. The following applies: Betacoronavirus 1, OC43, read-out: OC43.

In the case of `CCSc1nsc(NC(=O)Nc2ccccc2OC)n1` [BC24840, 3-(ethylthio)-5-[3-(o-methoxyphenyl)ureido]-1,2,4-thiadiazole], the IC50 in the test with SARS-CoV-2 NSP7-HiBiT was over 100 µM; with HCoV-OC43, 11.5 µM.
In the same order, the values of `CCSc1nsc(NC(=O)Nc2cccc(OC)c2)n1` [BC24841, 3-(ethylthio)-5-[3-(m-methoxyphenyl)ureido]-1,2,4-thiadiazole] are 12.3 µM and 5.5 µM.
On the same counts, the results for `CCSc1nsc(NC(=O)Nc2cccc(Cl)c2)n1` [BC24842, 5-[3-(m-chlorophenyl)ureido]-3-(ethylthio)-1,2,4-thiadiazole] are 2.15 µM and 1.56 µM.
For `CCSc1nsc(NC(=O)Nc2ccccc2Cl)n1` [BC24843, 5-[3-(o-chlorophenyl)ureido]-3-(ethylthio)-1,2,4-thiadiazole], the IC50 stood at 26.2 µM in the test with SARS-CoV-2 NSP7-HiBiT and 16.2 µM in the test on HCoV-OC43.
On the same counts, the results for `CCSc1nsc(NC(=O)Nc2ccccc2)n1` [BC24844, 3-(ethylthio)-5-(3-phenylureido)-1,2,4-thiadiazole] are 9.37 µM and 9.06 µM.
In the same order, the values of `CCSc1nsc(NC(=O)Nc2ccccc2[N+](=O)[O-])n1` [BC24846, 3-(ethylthio)-5-[3-(o-nitrophenyl)ureido]-1,2,4-thiadiazole] are 24.3 µM and 11.4 µM.
On the same counts, the results for `CCSc1nsc(NC(=O)Nc2cccc(C)c2C)n1` [BC24847, 3-(ethylthio)-5-[3-(2,3-xylyl)ureido]-1,2,4-thiadiazole] are 65.8 µM and 9.14 µM.
As for `CCSc1nsc(NC(=O)Nc2ccc(C)c(C)c2)n1` [BC24848, 3-(ethylthio)-5-[3-(3,4-xylyl)ureido]-1,2,4-thiadiazole], the IC50 in the test with SARS-CoV-2 NSP7-HiBiT was 15.5 µM; with HCoV-OC43, 7.05 µM.
On the same counts, the results for `CCSc1nsc(NC(=O)Nc2cc(C)ccc2C)n1` [BC24849, 3-(ethylthio)-5-[3-(2,5-xylyl)ureido]-1,2,4-thiadiazole] are 12.8 µM and 5.35 µM.
In the same order, the values of `CCSc1nsc(NC(=O)Nc2cc(F)cc(F)c2)n1` [BC24850, 5-[3-(3,5-difluorophenyl)ureido]-3-(ethylthio)-1,2,4-thiadiazole] are 2.96 µM and 1.22 µM.
On the same counts, the results for `CCSc1nsc(NC(=O)Nc2ccc(C)cc2Cl)n1` [BC24851, 5-[3-(2-chloro-4-tolyl)ureido]-3-(ethylthio)-1,2,4-thiadiazole] are over 100 µM and 17.4 µM.
On to `CCSc1nsc(NC(=O)Nc2ccc(Cl)c(C(F)(F)F)c2)n1` [BC24852, 5-{3-[4-chloro-3-(trifluoromethyl)phenyl]ureido}-3-(ethylthio)-1,2,4-thiadiazole], for which the IC50 in the test with SARS-CoV-2 NSP7-HiBiT worked out at 2.76 µM; with HCoV-OC43 it was 0.907 µM.
On the same counts, the results for `CCSc1nsc(NC(=O)Nc2cc(OC)ccc2OC)n1` [BC24853, 5-[3-(2,5-dimethoxyphenyl)ureido]-3-(ethylthio)-1,2,4-thiadiazole] are over 100 µM and 9.87 µM.
On the same counts, the results for `CCSc1nsc(NC(=O)Nc2ccc(C)cc2)n1` [BC24854, 3-(ethylthio)-5-[3-(p-tolyl)ureido]-1,2,4-thiadiazole] are 45.1 µM and 26.6 µM.
In the same order, the values of `CCSc1nsc(NC(=O)Nc2ccccc2C)n1` [BC24855, 3-(ethylthio)-5-[3-(o-tolyl)ureido]-1,2,4-thiadiazole] are 35.2 µM and 8.23 µM.
For `CCSc1nsc(NC(=O)Nc2ccc(F)c(Cl)c2)n1` [BC24856, 5-[3-(3-chloro-4-fluorophenyl)ureido]-3-(ethylthio)-1,2,4-thiadiazole], the IC50 came to 11.8 µM in the test on SARS-CoV-2 NSP7-HiBiT and 1.41 µM in the test with HCoV-OC43.
In the same order, the values of `CCSc1nsc(NC(=O)Nc2ccc(OC)cc2)n1` [BC24857, 3-(ethylthio)-5-[3-(p-methoxyphenyl)ureido]-1,2,4-thiadiazole] are over 100 µM and 88.8 µM.
In the same order, the values of `CCOc1ccccc1NC(=O)Nc1nc(SCC)ns1` [BC24858, 5-[3-(o-ethoxyphenyl)ureido]-3-(ethylthio)-1,2,4-thiadiazole] are over 100 µM and 24.3 µM.
Take `CCOc1ccc(NC(=O)Nc2nc(SCC)ns2)cc1` [BC24859, 5-[3-(p-ethoxyphenyl)ureido]-3-(ethylthio)-1,2,4-thiadiazole]: the IC50 is over 100 µM in the test with SARS-CoV-2 NSP7-HiBiT and 52.1 µM in the test on HCoV-OC43.
On the same counts, the results for `CCSc1nsc(NC(=O)Nc2cccc(Br)c2)n1` [BC24860, 5-[3-(m-bromophenyl)ureido]-3-(ethylthio)-1,2,4-thiadiazole] are 1.18 µM and 1.18 µM.
In the same order, the values of `CCSc1nsc(NC(=O)Nc2cccc(Cl)c2C)n1` [BC24862, 5-[3-(3-chloro-2-tolyl)ureido]-3-(ethylthio)-1,2,4-thiadiazole] are 7 µM and 5.68 µM.
For the compound `CCSc1nsc(NC(=O)Nc2cccc(C)c2)n1` [BC24863, 3-(ethylthio)-5-[3-(m-tolyl)ureido]-1,2,4-thiadiazole], the IC50 with SARS-CoV-2 NSP7-HiBiT worked out at 5.09 µM; with HCoV-OC43, 2.03 µM.
In the same order, the values of `CCSc1nsc(NC(=O)Nc2ccccc2CC)n1` [BC24864, 5-[3-(o-ethylphenyl)ureido]-3-(ethylthio)-1,2,4-thiadiazole] are 47.4 µM and 63.8 µM.
Take `CCOC(=O)Cc1ccc(NC(=O)Nc2nc(SCC)ns2)cc1` [BC24865, ethyl (p-{3-[3-(ethylthio)-1,2,4-thiadiazol-5-yl]ureido}phenyl)acetate]: the IC50 with SARS-CoV-2 NSP7-HiBiT worked out at 27.8 µM; in the test with HCoV-OC43 it was 10.7 µM.
On the same counts, the results for `CCSc1nsc(NC(=O)Nc2ccccc2C(F)(F)F)n1` [BC24866, 3-(ethylthio)-5-{3-[o-(trifluoromethyl)phenyl]ureido}-1,2,4-thiadiazole] are 18.5 µM and 12.4 µM.
As to `CCSc1nsc(NC(=O)Nc2ccc(C)cc2C)n1` [BC24867, 3-(ethylthio)-5-[3-(2,4-xylyl)ureido]-1,2,4-thiadiazole], the IC50 in the test on SARS-CoV-2 NSP7-HiBiT is over 100 µM; in the test with HCoV-OC43 it was 13 µM.
In the same order, the values of `CCOC(=O)CNC(=O)Nc1nc(SCC)ns1` [BC24868, ethyl {3-[3-(ethylthio)-1,2,4-thiadiazol-5-yl]ureido}acetate] are over 100 µM and over 100 µM.
In the same order, the values of `CCSc1nsc(NC(=O)NCCCOC)n1` [BC24869, 3-(ethylthio)-5-[3-(3-methoxypropyl)ureido]-1,2,4-thiadiazole] are over 100 µM and 56.7 µM.
`CCSc1nsc(NC(=O)Nc2ccc(F)cc2)n1` [BC24870, 3-(ethylthio)-5-[3-(p-fluorophenyl)ureido]-1,2,4-thiadiazole]: the results for the IC50 in the test on SARS-CoV-2 NSP7-HiBiT and with HCoV-OC43 were 17 µM and 10.1 µM, respectively.
On the same counts, the results for `CCOC(=O)C[C@H](NC(=O)Nc1nc(SCC)ns1)c1ccccc1` [BC24871, ethyl (S)-3-{3-[3-(ethylthio)-1,2,4-thiadiazol-5-yl]ureido}-3-phenylpropionate] are over 100 µM and 23.1 µM.
For `CCSc1nsc(NC(=O)NC2CCCC2)n1` [BC24872, 5-(3-cyclopentylureido)-3-(ethylthio)-1,2,4-thiadiazole], the IC50 in the test with SARS-CoV-2 NSP7-HiBiT is over 100 µM; in the test on HCoV-OC43, 30.9 µM.
On the same counts, the results for `CCSc1nsc(NC(=O)Nc2ccc(C)c(F)c2)n1` [BC24873, 3-(ethylthio)-5-[3-(3-fluoro-4-tolyl)ureido]-1,2,4-thiadiazole] are 8.51 µM and 7.74 µM.
On to `CCSc1nsc(NC(=O)NCCC(=O)OC)n1` [BC24874, methyl 3-{3-[3-(ethylthio)-1,2,4-thiadiazol-5-yl]ureido}propionate], for which the IC50 in the test on SARS-CoV-2 NSP7-HiBiT was over 100 µM; in the test with HCoV-OC43 it was 84.2 µM.
In the same order, the values of `CCOCCCNC(=O)Nc1nc(SCC)ns1` [BC24875, 5-[3-(3-ethoxypropyl)ureido]-3-(ethylthio)-1,2,4-thiadiazole] are over 100 µM and over 100 µM.
On the same counts, the results for `CCSc1nsc(NC(=O)Nc2cc(F)ccc2F)n1` [BC24876, 5-[3-(2,5-difluorophenyl)ureido]-3-(ethylthio)-1,2,4-thiadiazole] are 19.4 µM and 5.5 µM.
On the same counts, the results for `CCSc1nsc(NC(=O)Nc2cccc(C(F)(F)F)c2)n1` [BC24877] are 0.9 µM and 0.733 µM.
Turning to `CCSc1nsc(NC(=O)Nc2ccc(Br)c(C)c2)n1` [BC24878, 5-[3-(4-bromo-3-tolyl)ureido]-3-(ethylthio)-1,2,4-thiadiazole], the IC50 was 3.8 µM with SARS-CoV-2 NSP7-HiBiT and 2.55 µM with HCoV-OC43.
On the same counts, the results for `CCSc1nsc(NC(=O)NCc2ccc(C)cc2)n1` [BC24879, 3-(ethylthio)-5-{3-[(p-tolyl)methyl]ureido}-1,2,4-thiadiazole] are 27.6 µM and 13.3 µM.
With `CCSc1nsc(NC(=O)Nc2ccc3c(c2)OCCO3)n1` [BC24880, 5-[3-(2,3-dihydro-1,4-benzodioxin-6-yl)ureido]-3-(ethylthio)-1,2,4-thiadiazole], the IC50 with SARS-CoV-2 NSP7-HiBiT is 33.1 µM; in the test on HCoV-OC43, 21.2 µM.
In the same order, the values of `CCSc1nsc(NC(=O)NCCc2ccccc2)n1` [BC24881, 3-(ethylthio)-5-(3-phenethylureido)-1,2,4-thiadiazole] are 30 µM and 31.9 µM.
On the same counts, the results for `CCSc1nsc(NC(=O)NCc2cccc(OC)c2)n1` [BC24883, 3-(ethylthio)-5-{3-[(m-methoxyphenyl)methyl]ureido}-1,2,4-thiadiazole] are over 100 µM and 67.8 µM.
Consider `CCSc1nsc(NC(=O)Nc2ccc(F)cc2F)n1` [BC24884, 5-[3-(2,4-difluorophenyl)ureido]-3-(ethylthio)-1,2,4-thiadiazole], for which the figures for the IC50 with SARS-CoV-2 NSP7-HiBiT and with HCoV-OC43 were 27.6 µM and 16.9 µM, respectively.
On the same counts, the results for `CCSc1nsc(NC(=O)NCc2ccco2)n1` [BC24885, 3-(ethylthio)-5-(3-furfurylureido)-1,2,4-thiadiazole] are over 100 µM and over 100 µM.
